What all share (experiment): area under dose-response curve of surviving fraction (unscaled, Aref=0) (surviving fraction x log10(nM)); higher = more resistant
Common to all, as to settings: exposure time: 5 days; dose range 0.5-1000 nM

Compound in assay [1]: COc1cc2c(Oc3ccc(NC(=O)C4(C(=O)Nc5ccc(F)cc5)CC4)cc3F)ccnc2cc1OCCCN1CCOCC1 [FORETINIB]
An outline of the steps:
(§1)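 Tumour cell lines in 384-well plates were exposed for five days to eight inhibitor concentrations from 0.5 to 1000 nM. Viability was read by CellTiter-Glo luminescence, normalised to DMSO-only wells, in three screens per line. Dose-response survival curves were fitted to surviving fractions by 3-parameter logistic regression in the drc R package. Area under the curve is the unscaled activity area (Aref = 0) over log10 dose.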

Compound in assay [2]: CNCc1ccc(-c2[nH]c3cc(F)cc4c3c2CCNC4=O)cc1
An outline of the steps:
as §1

Compound in assay [3]: C[C@@H](Oc1cc(-c2cnn(C3CCNCC3)c2)cnc1N)c1c(Cl)ccc(F)c1Cl [CRIZOTINIB]
An outline of the steps:
as §1

Compound in assay [4]: Cc1nc(Nc2ncc(C(=O)Nc3c(C)cccc3Cl)s2)cc(N2CCN(CCO)CC2)n1 [DASATINIB]
A digest of the protocol: as §1

Compound in assay [5]: C[C@@H](Oc1cc(-c2cnn(C3CCNCC3)c2)cnc1N)c1c(Cl)ccc(F)c1Cl
A digest of the protocol: as §1

Compound in assay [6]: COc1cc2ncnc(Nc3ccc(F)c(Cl)c3)c2cc1NC(=O)/C=C/CN1CCCCC1
An outline of the steps:
as §1

Compound in assay [7]: NS(=O)(=O)OC[C@@H]1C[C@@H](n2ccc3c(N[C@H]4CCc5ccccc54)ncnc32)C[C@@H]1O [MLN-4924]
A digest of the protocol:
as §1

Compound in assay [8]: C[C@]12CC[C@H](O)CC1=CC[C@@H]1[C@@H]2CC[C@]2(C)C(c3cccnc3)=CC[C@@H]12 [ABIRATERONE]
An outline of the steps:
as §1

Compound in assay [9]: O=C(c1cc(Cc2n[nH]c(=O)c3ccccc23)ccc1F)N1CCN(C(=O)C2CC2)CC1 [OLAPARIB]
An outline of the steps: as §1

Compound in assay [10]: Oc1nc(-c2ccc(C(F)(F)F)cc2)nc2c1CSCC2 [XAV-939]
An outline of the steps: as §1

Compound in assay [11]: CNC(=O)c1cc(Oc2ccc(NC(=O)Nc3ccc(Cl)c(C(F)(F)F)c3)cc2)ccn1 [SORAFENIB]
A digest of the protocol: as §1

Compound in assay [12]: Cn1nnc2c(C(N)=O)ncn2c1=O [TEMOZOLOMIDE]
An outline of the steps:
as §1

Compound in assay [13]: CCn1c(C(=O)N(C2CC2)C2CC2)cc2c3c(ncn3C)c(Nc3cc(C)n(C)n3)nc21
An outline of the steps: as §1

These results are taken from the supplement of paper PMC6045584.

For HS57T LUNG, the “area under dose-response curve” value in assay [1] turned out to be 3.04; in [2], 3.17; in assay [3] it was 3.12; in [4], 1.87; in assay [5], 2.97; in [6], 3.17. In addition, the “area under dose-response curve” value was determined as 2.38 in assay [7]; 3.71 in assay [8]; 3.54 in assay [9]; 3.24 in assay [10]; 3.44 in [11]; 3.27 in assay [12]. The “area under dose-response curve” value in assay [13] turned out to be 3.21.
